In patent US20190343190A1, “MATERIALS INCLUDING POLYMERIC FIBERS INCORPORATING MICROCAPSULES OR NANOCAPSULES INCLUDING AN ESSENTIAL OIL” (President and Fellows of Harvard College, priority 2016, published 2019):

Tests used:
leucine dehydrogenase = leucine dehydrogenase (Bacillus subtilis, UniProt P54531); details: cited from earlier work
[1] = Polystyrene-water partition of citral; format: physicochemical
From the text: The polymer matrix should not dissolve through bulk degradation or boundary degradation as it is very inert and unreactive, plus divinylbenzene provides additional stability. […] This is extremely high: its predicts the existence of approximately 5000 molecules of citral within the nanocapsule core or polystyrene shell for every molecule in surrounding water. This dictates a fixed equilibrium between concentration in polystyrene nanocapsule Cp and surrounding water Cw given by the equation: Cp/Cw=10^3.7=5011

Chain of leucine dehydrogenase (P54531 whole entry): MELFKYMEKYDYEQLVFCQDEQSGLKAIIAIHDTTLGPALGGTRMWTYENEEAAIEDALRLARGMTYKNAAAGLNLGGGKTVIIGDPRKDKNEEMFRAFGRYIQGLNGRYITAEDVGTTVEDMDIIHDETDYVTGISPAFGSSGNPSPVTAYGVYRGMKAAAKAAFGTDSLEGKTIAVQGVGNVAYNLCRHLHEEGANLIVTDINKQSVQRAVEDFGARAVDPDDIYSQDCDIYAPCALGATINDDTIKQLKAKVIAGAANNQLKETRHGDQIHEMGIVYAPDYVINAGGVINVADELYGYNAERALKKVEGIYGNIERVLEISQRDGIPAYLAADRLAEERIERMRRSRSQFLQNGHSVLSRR

CC(C)=CCCC(C)=CC=O [citral]
Binding affinity compared with branched chain amino acids (leucine dehydrogenase): higher binding affinity
Molecules within the nanocapsule core or polystyrene shell for every molecule in surrounding water [1]: approximately 5000
